According to patent publication US6998479B1, “Derivatives of cyclodextrins” (priority 1998, dated 2006):

Experiments:
[1] = Reaction of aminooxy-CD with 4-thiouracil followed by UV spectra; details: 1 mM 4-thiouracil, 0.1 M compound, 20° C., neutral pH (7.0), 1 mm path
Protocol: FIG. 1a. Time course of the UV spectra (optical path length 1 mm) of a reaction mixture containing 1 mM 4-thiouracil in 100 mM 4-aminooxy-2-butenyl-beta-cyclodextrin (I; see Example I.2) at pH 7.0. Incubation at 20° C. is indicated as hours.
FIG. 1b. Time course of the UV spectra (optical path length 1 mm) of a reaction mixture containing 1 mM 4-thiouracil and 100 mM 1-aminooxybutane at 20° C. at pH 7.00. Incubation time (hours) is indicated.
A 1 mM solution of 4-thiouracil (Lacheama, Brno, Czechoslovakia) was incubated at 20° C. within a 0.1 M solution of 4-aminooxy-2-butenyl-β-CD (I) at neutral pH. The UV-spectra were recorded at certain time intervals using cuvettes of 1 mm optical path length (FIG. 1a). This reaction was compared with the reaction of 4-thiouracil with 1-aminooxybutane under the same reaction conditions (FIG. 1b).

[2] = Reaction of aminooxy-CD with 6-mercaptopurine riboside followed by UV spectra; details: 1 mM 6-mercaptopurine riboside, 0.1 M compound, 20° C., pH 7.00, 1 mm path
Protocol: FIG. 2a. Time course of the UV spectra (optical path length 1 mm) of a reaction mixture containing 1 mM 6-mercaptopurineriboside with 100 mM 4-aminooxy-2-butenyl-beta-cyclodextrin (see Example I.2). Incubation time (hours) is indicated.
FIG. 2b. Time course of the UV spectra (optical path length b 1 mm) of a reaction mixture containing 1 mM 6-mercaptopurineriboside with 100 mM 1-aminooxybutane at pH 7.00. Incubation time (hours) is indicated.
A 1 mM solution of 6-mercaptopurine riboside (Sigma Chem. Co., USA) was incubated at 20° C. within 0.1 M of 4-aminooxy-2-butenyl-β-CD (I).

## 4-aminooxy-2-butenyl-beta-cyclodextrin
[1]
  velocity of reaction with 4-thiouracil compared with 1-aminooxybutane: significantly higher velocity of reaction
[2]
  reaction rate with 6-mercaptopurine riboside compared with 1-aminooxybutane: drastically higher reaction rates
